Assay results reported in ChEMBL document CHEMBL1201862, “PubChem BioAssay data set” (2004).
“And” between values parts separate entries of the source, which are not always exact repeats. Equal values may be shown once. The source made the active and inactive calls.

Experiments:
[1] = molecular target: T1, Beta-2 adrenergic receptor (Homo sapiens, UniProt P07550); assay: Dose response for HTS for Beta-2AR agonists via FAP method from Powderset1.; format: functional
[2] = molecular target: T1, Beta-2 adrenergic receptor; assay: beta2AR agonists driving receptor internalization, dose response, cell-based, FAP fluorogen, flow cytometry, cherry pick 1 (AID 588763); format: functional
[3] = molecular target: T2, Replicative DNA helicase DnaB (Mycobacterium tuberculosis, UniProt P9WMR3); assay: DnaB intein splicing inhibitors, dose response, biochemical, cell-free fluorescence (AID 449749); format: functional
T2 sequence (P9WMR3 whole entry): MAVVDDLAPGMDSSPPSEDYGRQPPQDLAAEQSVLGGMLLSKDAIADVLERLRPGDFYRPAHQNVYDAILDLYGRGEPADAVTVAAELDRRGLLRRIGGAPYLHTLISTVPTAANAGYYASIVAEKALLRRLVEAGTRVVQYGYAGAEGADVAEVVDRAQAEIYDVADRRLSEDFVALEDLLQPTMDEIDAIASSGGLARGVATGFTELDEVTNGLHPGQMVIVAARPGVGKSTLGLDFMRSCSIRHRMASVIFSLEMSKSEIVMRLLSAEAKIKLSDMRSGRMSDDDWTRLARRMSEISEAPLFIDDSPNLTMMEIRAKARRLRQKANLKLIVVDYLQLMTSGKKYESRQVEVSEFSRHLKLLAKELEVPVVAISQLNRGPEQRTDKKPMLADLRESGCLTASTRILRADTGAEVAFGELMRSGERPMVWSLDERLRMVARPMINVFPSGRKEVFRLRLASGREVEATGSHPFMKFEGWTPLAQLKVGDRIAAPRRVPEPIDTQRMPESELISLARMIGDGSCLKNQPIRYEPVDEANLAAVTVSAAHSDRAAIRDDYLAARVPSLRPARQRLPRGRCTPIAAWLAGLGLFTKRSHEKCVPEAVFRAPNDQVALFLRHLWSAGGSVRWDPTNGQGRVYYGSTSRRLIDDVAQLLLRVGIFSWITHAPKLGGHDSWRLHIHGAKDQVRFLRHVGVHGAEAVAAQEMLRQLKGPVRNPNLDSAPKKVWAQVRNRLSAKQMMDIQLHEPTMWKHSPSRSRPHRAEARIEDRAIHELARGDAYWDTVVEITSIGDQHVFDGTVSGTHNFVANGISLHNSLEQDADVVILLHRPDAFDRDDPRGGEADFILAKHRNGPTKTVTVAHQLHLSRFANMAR

Vero = Vero cell cytotoxicity, cytotoxicity control for flavivirus capping enzyme inhibitors (AID 588742); format: functional; settings: Chlorocebus sabaeus
Protein RecA = molecular target: T3, Protein RecA (Mycobacterium tuberculosis, UniProt P9WHJ3); assay: Fluorescence Cell-Free Homogeneous Dose Retest to Identify Inhibitors of RecA-Intein Splicing Activity. [Related pubchem assays (depositor defined):AID2097, AID2223, AID489010, AID492950]; format: functional
T3 sequence (P9WHJ3 whole entry): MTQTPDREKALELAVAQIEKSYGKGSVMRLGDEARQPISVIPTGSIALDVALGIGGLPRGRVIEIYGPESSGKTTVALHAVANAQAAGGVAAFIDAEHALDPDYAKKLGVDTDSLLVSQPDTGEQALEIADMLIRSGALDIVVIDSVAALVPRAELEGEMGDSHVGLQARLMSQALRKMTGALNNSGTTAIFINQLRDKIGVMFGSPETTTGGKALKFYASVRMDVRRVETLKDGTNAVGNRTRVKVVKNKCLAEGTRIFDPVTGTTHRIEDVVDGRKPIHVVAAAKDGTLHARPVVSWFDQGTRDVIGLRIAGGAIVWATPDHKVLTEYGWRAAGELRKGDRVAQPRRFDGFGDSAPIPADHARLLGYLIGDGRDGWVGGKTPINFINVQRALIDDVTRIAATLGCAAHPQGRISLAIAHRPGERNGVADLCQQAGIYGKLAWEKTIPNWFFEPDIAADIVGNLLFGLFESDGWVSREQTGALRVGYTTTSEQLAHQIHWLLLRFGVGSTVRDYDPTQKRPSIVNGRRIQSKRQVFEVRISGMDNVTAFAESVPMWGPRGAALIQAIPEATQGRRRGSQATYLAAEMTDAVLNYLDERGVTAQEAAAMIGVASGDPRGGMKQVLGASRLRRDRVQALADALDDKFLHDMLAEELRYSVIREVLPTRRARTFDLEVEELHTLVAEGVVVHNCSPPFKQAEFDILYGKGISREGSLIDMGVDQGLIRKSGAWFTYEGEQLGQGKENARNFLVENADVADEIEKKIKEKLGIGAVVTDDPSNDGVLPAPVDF

Genome polyprotein = Genome polyprotein (dengue virus type 2, UniProt P29990); assay: Dengue-2 NS5 methyltransferase inhibitors, primary screen, biochemical, confirmation dose response (AID 588689); format: functional
[4] = molecular target: Hepatocyte nuclear factor 4-alpha (Homo sapiens, UniProt P41235); format: functional, cell-based;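 further: biochemical luminescence-based dose-response counterscreen measuring inhibition of HNF4 dimerization, run alongside a screen for blockers of ABHD5–perilipin-5 interaction; split luciferase complementation of HNF4 fusion proteins in cell lysate measuring dimerization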
Hepatocyte nuclear factor 4-alpha, sequence (P41235 whole entry, the tested form may be a part): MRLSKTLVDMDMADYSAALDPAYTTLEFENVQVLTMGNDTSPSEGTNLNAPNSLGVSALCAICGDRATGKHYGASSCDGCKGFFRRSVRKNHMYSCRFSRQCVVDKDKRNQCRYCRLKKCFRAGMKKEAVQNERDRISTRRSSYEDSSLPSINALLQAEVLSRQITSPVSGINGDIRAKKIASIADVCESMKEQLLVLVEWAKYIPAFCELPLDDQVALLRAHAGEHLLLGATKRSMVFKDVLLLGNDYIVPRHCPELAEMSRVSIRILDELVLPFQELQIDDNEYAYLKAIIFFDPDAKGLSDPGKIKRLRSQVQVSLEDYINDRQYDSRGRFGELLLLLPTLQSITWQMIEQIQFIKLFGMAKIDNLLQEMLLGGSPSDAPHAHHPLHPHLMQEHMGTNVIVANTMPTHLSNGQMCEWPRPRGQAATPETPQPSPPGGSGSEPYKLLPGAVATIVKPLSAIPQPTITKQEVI

Beta-lactamase [5] = molecular target: Beta-lactamase (Salmonella choleraesuis (strain SC-B67), UniProt Q5J463); assay: Epi-absorbance-based counterscreen for selective VIM-2 inhibitors: dose response biochemical high throughput screening assay to identify inhibitors of TEM-1 serine-beta-lactamase.
Beta-lactamase (Salmonella choleraesuis (strain SC-B67), UniProt Q5J463), sequence (Q5J463 whole entry): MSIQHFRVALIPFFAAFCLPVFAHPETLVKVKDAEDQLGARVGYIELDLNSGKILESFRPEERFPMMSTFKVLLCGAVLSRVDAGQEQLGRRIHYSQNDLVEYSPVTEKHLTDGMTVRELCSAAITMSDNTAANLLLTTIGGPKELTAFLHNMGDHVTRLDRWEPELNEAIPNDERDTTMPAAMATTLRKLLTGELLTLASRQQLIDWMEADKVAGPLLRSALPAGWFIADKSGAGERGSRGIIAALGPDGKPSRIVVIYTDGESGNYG

Beta-lactamase [6] = molecular target: T4, Beta-lactamase (Pseudomonas aeruginosa, UniProt Q79MP6); assay: IMP-1 metallo-beta-lactamase inhibitors, dose response, selectivity assay for VIM-2 inhibitor project, biochemical, epi-absorbance (AID 1920)
T4 sequence (Q79MP6 whole entry): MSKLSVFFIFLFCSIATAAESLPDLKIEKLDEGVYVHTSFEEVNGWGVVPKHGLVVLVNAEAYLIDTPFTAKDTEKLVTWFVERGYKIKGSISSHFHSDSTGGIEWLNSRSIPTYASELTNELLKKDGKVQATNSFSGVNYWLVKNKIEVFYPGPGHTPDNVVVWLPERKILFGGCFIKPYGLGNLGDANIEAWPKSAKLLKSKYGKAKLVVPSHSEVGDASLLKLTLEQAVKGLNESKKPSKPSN

Beta-lactamase [7] = molecular target: T4, Beta-lactamase; assay: […] counterscreen for selective VIM-2 inhibitors: dose response biochemical high throughput screening assay to identify inhibitors of IMP-1 metallo-beta-lactamase.
[8] = MDA-MB-231 cell growth inhibition, dose response, cytotoxicity control for RAD54 inhibitor project, CellTiter-Glo luminescence, cherry-pick (AID 651692); format: functional, cell-based
[9] = molecular target: T5, DNA repair and recombination protein RAD54-like (Homo sapiens, UniProt Q92698); assay: inhibitors of human RAD54 branch migration, confirmation, biochemical, fluorescence, cherry-picked samples, dose series (AID 651657); format: functional
T5 sequence (Q92698 whole entry): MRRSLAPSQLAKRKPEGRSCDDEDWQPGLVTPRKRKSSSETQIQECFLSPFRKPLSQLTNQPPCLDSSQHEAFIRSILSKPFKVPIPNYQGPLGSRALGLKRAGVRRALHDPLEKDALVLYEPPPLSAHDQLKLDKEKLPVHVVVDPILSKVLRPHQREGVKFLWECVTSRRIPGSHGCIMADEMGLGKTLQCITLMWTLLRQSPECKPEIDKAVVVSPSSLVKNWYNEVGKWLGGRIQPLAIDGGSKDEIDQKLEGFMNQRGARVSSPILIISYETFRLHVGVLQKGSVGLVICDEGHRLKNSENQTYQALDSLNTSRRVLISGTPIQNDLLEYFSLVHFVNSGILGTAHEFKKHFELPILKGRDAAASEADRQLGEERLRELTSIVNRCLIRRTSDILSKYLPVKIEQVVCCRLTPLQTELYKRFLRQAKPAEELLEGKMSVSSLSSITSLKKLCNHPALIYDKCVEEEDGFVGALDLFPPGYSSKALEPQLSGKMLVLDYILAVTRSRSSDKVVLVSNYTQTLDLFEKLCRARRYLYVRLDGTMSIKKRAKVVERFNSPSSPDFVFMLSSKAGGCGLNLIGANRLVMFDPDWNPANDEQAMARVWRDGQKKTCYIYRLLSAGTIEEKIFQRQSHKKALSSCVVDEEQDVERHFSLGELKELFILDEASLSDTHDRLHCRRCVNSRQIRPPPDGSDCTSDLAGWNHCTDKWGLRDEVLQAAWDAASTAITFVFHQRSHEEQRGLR

[10] = test system: Streptococcus sp. 'group A'; assay: growth inhibition of control SK(-) GAS strain, dose response, counter-screen for streptokinase expression inhibitor project, luminescence, kanamycin, BacTiterGlo, confirmation (AID 1900); format: functional, organism-based
Streptokinase A = molecular target: T6, Streptokinase A (Streptococcus pyogenes serotype M1, UniProt P10520); assay: S. pyogenes streptokinase expression inhibitors, potency, dose response, plasminogen activation absorbance, OD405 (AID 1914); format: functional, Streptococcus pyogenes M1 GAS;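 further: secreted streptokinase activity via plasminogen activation per viability signal from cell pellet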
T6 sequence (P10520 whole entry): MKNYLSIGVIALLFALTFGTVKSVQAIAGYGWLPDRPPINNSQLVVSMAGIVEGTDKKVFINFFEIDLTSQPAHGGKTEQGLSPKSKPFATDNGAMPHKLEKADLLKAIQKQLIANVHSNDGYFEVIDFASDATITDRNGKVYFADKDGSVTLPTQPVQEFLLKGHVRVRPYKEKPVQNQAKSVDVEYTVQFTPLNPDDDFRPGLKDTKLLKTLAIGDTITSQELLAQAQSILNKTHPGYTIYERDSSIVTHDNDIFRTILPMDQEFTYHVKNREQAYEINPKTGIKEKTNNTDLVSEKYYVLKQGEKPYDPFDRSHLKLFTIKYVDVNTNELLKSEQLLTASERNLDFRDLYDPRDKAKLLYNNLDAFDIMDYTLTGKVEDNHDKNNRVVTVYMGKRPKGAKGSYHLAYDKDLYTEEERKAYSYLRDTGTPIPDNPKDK

[11] = inhibitors of intracellular T. cruzi replication, confirmation, NIH3T3 host cells, beta-gal luminescence (AID 2044); format: functional, cell-based;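 further: intracellular parasites grown in NIH/3T3 mouse fibroblasts as host cells; luminescent beta-galactosidase reporter signal from transgenic T. cruzi replicating inside host cells; inhibitors lower the luminescence signal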
[12] = cytotoxicity toward NIH3T3 fibroblasts, dose response, counter-screen, cell-based, ATP luminescence, mouse fibroblasts (AID 2010); format: functional;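 further: cells exposed to compound for about 90 hours before reading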
Streptococcus = assay: Group A Streptococcus viability loss, dose response, counter-screen for streptokinase expression inhibitor project, luminescence, BacTiterGlo (AID 1915); format: functional, organism-based;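 further: potency for reduction of bacterial viability or growth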
[13] = molecular target: T7, ATP-dependent translocase ABCB1 (Homo sapiens, UniProt P08183); assay: ABCB1 efflux pump inhibitor potency, dose response, Jurkat-DNR cells, JC-1, flow cytometry (AID 1689); format: functional
T7 sequence (P08183 whole entry): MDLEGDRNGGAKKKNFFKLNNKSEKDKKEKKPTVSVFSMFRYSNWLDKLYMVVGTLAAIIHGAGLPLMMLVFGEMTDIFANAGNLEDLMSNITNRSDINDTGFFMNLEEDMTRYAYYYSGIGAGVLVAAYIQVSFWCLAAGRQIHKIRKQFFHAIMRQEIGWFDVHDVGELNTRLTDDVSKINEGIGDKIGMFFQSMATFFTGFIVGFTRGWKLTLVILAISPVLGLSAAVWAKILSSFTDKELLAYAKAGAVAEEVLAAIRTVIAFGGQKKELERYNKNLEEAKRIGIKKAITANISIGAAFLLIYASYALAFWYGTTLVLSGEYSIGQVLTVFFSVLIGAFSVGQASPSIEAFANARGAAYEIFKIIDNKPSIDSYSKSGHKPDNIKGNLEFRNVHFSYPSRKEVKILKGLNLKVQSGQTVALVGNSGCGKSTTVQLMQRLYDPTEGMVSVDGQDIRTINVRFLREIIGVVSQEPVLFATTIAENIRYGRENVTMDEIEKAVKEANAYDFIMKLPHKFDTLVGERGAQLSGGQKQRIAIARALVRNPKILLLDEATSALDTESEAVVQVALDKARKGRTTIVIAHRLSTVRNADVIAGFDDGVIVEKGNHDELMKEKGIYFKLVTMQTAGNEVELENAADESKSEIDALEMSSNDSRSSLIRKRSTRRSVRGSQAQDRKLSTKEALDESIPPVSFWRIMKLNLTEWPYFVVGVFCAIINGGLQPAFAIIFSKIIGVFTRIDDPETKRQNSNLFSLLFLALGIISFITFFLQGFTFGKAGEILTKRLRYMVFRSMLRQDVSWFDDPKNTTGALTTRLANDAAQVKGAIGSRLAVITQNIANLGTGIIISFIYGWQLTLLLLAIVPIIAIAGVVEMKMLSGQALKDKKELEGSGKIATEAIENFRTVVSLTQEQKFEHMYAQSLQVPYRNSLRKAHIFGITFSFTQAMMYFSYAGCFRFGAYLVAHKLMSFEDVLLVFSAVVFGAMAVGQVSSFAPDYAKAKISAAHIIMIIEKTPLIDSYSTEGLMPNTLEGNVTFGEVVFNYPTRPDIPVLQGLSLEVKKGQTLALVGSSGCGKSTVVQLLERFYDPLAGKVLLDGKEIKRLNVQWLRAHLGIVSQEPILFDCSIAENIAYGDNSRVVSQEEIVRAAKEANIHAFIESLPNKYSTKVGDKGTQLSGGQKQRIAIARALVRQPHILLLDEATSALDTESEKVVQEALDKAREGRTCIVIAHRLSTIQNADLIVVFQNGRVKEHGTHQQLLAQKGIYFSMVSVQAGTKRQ

[14] = molecular target: Broad substrate specificity ATP-binding cassette transporter ABCG2 (Homo sapiens, UniProt Q9UNQ0); assay: ABCG2 efflux pump inhibitors, dose response, Ig-MXP3 cells, flow cytometry (AID 1690); format: functional
Broad substrate specificity ATP-binding cassette transporter ABCG2, sequence (Q9UNQ0 whole entry): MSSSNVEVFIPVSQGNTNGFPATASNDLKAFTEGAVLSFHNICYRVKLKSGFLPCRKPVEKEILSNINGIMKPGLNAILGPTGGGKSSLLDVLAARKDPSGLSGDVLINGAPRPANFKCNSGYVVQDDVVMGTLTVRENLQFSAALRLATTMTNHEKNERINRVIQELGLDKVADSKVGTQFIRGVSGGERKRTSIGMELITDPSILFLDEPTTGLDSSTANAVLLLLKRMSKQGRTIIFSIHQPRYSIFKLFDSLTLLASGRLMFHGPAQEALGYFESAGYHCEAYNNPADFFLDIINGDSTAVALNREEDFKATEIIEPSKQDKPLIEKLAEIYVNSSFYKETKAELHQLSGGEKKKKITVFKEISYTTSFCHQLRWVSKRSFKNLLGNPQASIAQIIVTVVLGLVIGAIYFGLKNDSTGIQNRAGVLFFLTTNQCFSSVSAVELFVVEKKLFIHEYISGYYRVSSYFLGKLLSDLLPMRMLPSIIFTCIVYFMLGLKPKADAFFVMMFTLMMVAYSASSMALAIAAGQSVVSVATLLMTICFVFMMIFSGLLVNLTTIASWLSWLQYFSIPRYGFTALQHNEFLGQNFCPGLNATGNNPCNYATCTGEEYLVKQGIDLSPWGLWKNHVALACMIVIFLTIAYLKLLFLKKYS

Estrogen receptor = molecular target: T8, Estrogen receptor (Homo sapiens, UniProt P03372);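 further: potency for inhibiting coactivator peptide recruitment to the receptor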
T8 sequence (P03372 whole entry): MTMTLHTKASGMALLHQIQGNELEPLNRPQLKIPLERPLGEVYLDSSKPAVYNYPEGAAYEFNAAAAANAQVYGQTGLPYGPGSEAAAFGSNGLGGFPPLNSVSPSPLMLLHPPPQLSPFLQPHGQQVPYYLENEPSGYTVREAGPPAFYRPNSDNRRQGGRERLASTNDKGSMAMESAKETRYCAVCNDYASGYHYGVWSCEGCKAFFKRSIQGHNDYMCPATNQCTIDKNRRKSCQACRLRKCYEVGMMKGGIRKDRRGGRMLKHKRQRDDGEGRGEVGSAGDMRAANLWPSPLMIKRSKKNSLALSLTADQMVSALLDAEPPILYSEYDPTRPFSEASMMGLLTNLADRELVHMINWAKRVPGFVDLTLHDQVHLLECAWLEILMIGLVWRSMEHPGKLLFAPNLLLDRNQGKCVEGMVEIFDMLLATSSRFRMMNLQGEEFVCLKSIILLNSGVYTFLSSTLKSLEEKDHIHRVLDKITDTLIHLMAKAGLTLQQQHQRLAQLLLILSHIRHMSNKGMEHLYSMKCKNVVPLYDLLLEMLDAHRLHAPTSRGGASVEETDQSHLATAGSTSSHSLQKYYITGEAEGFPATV

[15] = molecular target: Arf-GAP with SH3 domain, ANK repeat and PH domain-containing protein 1 (Homo sapiens, UniProt Q9ULH1); format: functional;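 further: biochemical fluorescence polarization dose–response screen measuring inhibition of ASAP1; ASAP1 GAP domain stimulating GTP hydrolysis by truncated human ARF1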
Arf-GAP with SH3 domain, ANK repeat and PH domain-containing protein 1, sequence (Q9ULH1 whole entry, the tested form may be a part): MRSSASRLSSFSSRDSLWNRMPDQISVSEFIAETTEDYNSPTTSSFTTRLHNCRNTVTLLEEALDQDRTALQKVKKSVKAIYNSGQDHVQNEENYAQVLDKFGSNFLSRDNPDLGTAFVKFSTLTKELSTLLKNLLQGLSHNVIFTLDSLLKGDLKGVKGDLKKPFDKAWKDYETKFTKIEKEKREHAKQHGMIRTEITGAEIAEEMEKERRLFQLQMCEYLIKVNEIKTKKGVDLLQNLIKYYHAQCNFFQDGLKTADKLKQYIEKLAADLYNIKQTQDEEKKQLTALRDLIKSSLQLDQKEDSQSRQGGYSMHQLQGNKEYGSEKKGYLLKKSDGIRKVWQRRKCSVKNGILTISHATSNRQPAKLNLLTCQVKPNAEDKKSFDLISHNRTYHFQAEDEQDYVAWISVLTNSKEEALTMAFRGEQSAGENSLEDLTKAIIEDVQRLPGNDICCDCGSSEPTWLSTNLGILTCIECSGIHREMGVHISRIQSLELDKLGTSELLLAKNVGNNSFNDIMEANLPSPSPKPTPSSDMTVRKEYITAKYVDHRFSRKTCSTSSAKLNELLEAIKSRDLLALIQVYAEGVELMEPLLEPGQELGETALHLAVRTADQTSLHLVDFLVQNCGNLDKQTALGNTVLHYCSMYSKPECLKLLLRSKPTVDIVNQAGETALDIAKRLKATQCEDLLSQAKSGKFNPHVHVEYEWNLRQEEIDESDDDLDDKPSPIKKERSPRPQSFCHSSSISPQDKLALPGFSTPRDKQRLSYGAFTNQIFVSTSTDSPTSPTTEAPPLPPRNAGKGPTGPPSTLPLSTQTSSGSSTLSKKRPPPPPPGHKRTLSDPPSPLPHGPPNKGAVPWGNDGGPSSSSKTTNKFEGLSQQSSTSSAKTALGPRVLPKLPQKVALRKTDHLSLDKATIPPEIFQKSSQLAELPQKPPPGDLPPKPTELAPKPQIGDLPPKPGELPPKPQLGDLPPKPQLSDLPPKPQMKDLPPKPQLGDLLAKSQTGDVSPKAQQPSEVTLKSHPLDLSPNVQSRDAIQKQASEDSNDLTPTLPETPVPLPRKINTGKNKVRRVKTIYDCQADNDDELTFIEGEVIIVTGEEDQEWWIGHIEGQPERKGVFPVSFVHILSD

[16] = Vero cell cytotoxicity, cytotoxicity control for M. tuberculosis inhibitor project, purified and synthesized samples, set 8 (AID 602431); format: functional; settings: Mycobacterium tuberculosis
[17] = molecular target: T7, ATP-dependent translocase ABCB1; assay: ABCG2 efflux pump inhibitor potency, dose response, Ig-MXP3 cells, JC-1, flow cytometry, set 2 (AID 504566); format: functional; settings: read-out: EC50_MICROM_;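 further: flow cytometry median green fluorescence of retained JC-1 dye; potency of efflux pump inhibition measured as rising substrate retention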
[18] = molecular target: T7, ATP-dependent translocase ABCB1; assay: ABCB1 efflux inhibitor potency, dose response, Jurkat-DNR cells, JC-1, flow cytometry, set 2 (AID 504569); format: functional; settings: read-out: EC50_MICROM_;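 further: potency of pump inhibitors that raise cellular JC-1 green fluorescence up to the nicardipine level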
[19] = molecular target: Eukaryotic translation initiation factor 4E (Mus musculus, UniProt P63073); assay: eIF4E–eIF4G protein interaction inhibitors, dose response, biochemical, TR-FRET (AID 855); format: functional;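 further: potency for disrupting eIF4E binding to eIF4GI seen as loss of FRET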
Eukaryotic translation initiation factor 4E, sequence (P63073 whole entry): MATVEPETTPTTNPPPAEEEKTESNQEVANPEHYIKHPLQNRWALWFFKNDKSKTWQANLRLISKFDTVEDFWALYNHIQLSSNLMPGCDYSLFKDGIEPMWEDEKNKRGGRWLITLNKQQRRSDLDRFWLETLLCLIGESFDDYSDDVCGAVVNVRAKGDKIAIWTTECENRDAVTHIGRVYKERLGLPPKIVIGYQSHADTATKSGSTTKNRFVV

[20] = Counterscreen for […] of the human trace amine associated receptor 1 (TAAR1): Fluorescence-based cell-based high throughput dose response assay to identify nonselective Ga16 agonists.; format: functional
[21] = Counterscreen for antagonists of the human trace amine associated receptor 1 (hTAAR1): Fluorescence-based cell-based high throughput dose response assay to identify nonselective Ga16 antagonists.; format: functional

T1 sequence (P07550 whole entry): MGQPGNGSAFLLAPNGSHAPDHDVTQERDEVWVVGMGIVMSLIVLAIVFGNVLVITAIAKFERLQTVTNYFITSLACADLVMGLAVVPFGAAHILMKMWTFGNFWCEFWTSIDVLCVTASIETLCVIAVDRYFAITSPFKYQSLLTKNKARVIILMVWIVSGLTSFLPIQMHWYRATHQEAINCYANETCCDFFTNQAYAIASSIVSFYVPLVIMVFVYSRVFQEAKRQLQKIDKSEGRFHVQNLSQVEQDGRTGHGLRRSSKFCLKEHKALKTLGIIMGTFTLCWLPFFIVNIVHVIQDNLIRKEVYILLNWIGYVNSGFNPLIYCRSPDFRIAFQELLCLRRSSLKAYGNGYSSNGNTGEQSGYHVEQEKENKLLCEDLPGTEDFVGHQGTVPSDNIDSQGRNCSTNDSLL

## CN(CC(=O)N1CCN(c2ccccn2)CC1)S(=O)(=O)c1ccc(Br)cc1
[1]
  EC50: 0.0191 µM (active)
[2]
  EC50: 82.8 nM (active) and 35.6 nM (active)

## CC(=O)Oc1c(Br)cc(N(C(C)=O)S(=O)(=O)c2ccccc2)c2ccccc12
[3]
  AC50: 3.76 µM (active)
Vero
  CC50: 39.8 µM (active)
Protein RecA
  EC50: 2.81 µM (active)
Genome polyprotein
  IC50: 49.8 µM (active)
[4]
  IC50: 6.11 µM (active)

## O=C(CSc1nnc(NC(=O)c2ccccc2)s1)NCc1ccco1
Beta-lactamase [5]
  IC50: > 59.6 µM (inactive)
Beta-lactamase [6]
  IC50: > 59.6 µM (inactive)
Beta-lactamase [7]
  IC50: > 59.6 µM (inactive)

## CCOC(=O)N1CCN(S(=O)(=O)c2ccc(C(=O)Nc3sc4c(c3C(=O)OC)CCN(C)C4)cc2)CC1
[8]
  AC50: 17.1 µM (active)
[9]
  AC50: 16.8 µM (active)

## COc1ccc(-c2nn(-c3ccccc3)cc2/C=C/C(=O)N2CCN(c3ccccn3)CC2)cc1
[10]
  EC50: 3.86 µM (active)
Streptokinase A
  EC50: > 150 µM (not active)
[11]
  EC50: 2.34 µM (active)
[12]
  EC50: > 60 µM (not active)
Streptococcus
  EC50: 39.3 µM (active)
[13]
  EC50: 1.64 µM (active)
[14]
  EC50: 0.41 µM (active)

## COc1ccc2c(c1)CC/C(=C\c1ccc(OC)c(Cn3nc(C)cc3C)c1)C2=O
Estrogen receptor
  IC50: > 50 µM (not active)
[15]
  IC50: 26.8 µM (inactive)

## O=C(c1ccc(CNc2c(N3CCCC3)c(=O)c2=O)cc1)N1CCC(c2ccccc2)CC1
[16]
  CC50: > 100 µM (inconclusive)

## COc1ccc(-c2cc3nc(C)cc(N4CCN(C(=O)c5cccnc5)CC4)n3n2)cc1
[17]
  EC50: 10.7 µM (active)
[18]
  EC50: 19 µM (inactive)

## Cc1ccc(-n2c(C)cc(/C=N/Nc3ccc([N+](=O)[O-])cn3)c2C)cc1
[19]
  IC50: > 64 µM (inactive)
[20]
  EC50: > 29.9 µM (inactive)
[21]
  IC50: > 29.9 µM (inactive)
